This is an account of results in patent publication US6548494B1, “Tricyclic inhibitors of poly(ADP-ribose) polymerases” (Agouron Pharmaceuticals, Inc., priority 1999, dated 2003).

Values joined by “and” are separate entries in the source; they are usually repeats but may differ in a detail not shown here. Identical values can stand only once.

Data set [1] deals with purified PARP protein (Homo sapiens, UniProt P09874). Nature of the data set: PARP enzyme inhibition assay. In kind it is biochemical. To be noted: 20 nM purified PARP (5 nM for tight-binding inhibitors), 500 μM NAD+, 25° C.; several values in one cell = repeat determinations; read-out: Inhibition Constant Ki.
Chain of purified PARP protein (P09874 whole entry): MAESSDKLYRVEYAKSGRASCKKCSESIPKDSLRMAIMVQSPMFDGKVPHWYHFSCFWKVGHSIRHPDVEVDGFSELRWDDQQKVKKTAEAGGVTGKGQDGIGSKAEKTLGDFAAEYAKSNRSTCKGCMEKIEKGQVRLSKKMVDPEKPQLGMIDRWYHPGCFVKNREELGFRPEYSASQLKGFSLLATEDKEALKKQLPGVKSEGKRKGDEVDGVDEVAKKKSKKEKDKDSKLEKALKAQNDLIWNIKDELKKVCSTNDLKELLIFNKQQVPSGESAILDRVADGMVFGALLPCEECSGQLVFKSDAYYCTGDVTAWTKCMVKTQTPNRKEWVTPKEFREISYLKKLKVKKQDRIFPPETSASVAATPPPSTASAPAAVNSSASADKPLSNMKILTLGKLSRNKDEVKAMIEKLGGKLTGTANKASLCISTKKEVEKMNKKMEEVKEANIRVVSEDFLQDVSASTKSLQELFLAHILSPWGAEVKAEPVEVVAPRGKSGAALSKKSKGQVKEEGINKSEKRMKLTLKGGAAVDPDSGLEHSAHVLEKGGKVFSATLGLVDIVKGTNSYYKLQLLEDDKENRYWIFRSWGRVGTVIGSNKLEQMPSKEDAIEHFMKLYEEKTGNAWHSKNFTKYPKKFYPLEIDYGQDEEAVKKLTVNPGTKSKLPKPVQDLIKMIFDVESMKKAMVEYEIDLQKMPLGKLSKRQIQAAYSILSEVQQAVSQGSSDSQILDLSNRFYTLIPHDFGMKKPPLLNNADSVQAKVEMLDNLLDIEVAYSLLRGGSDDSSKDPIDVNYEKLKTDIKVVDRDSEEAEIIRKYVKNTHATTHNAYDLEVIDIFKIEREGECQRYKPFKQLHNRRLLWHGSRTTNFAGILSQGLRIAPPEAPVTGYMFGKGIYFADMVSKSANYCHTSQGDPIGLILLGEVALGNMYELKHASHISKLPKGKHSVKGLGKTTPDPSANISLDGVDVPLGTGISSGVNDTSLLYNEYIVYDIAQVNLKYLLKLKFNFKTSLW
Data set [2] has as its system A549 cells. The experiment in a line: Cytotoxicity potentiation assay. In kind it is cell-based. To be noted: test compound 0.4 μM, ratio of IC50 of topotecan alone to IC50 of topotecan with test compound. Here is the method:
A549 cells (ATCC, Rockville, Md.) were seeded into 96-well cell culture plates (Falcon brand, Fisher Scientific, Pittsburgh, Pa.) 16 to 24 hours before experimental manipulation. Cells were then treated with a test compound (or a combination of test compounds where indicated) each at a concentration of 0.4 μM for either 3 days or 5 days. At the end of treatments, relative cell number was determined either by MTT assay or SRB assay. For the MTT assay, 0.2 μg/μl of MTT (3-(4,5-dimethylthiazol-2-yl)-2,5-diphenyltetrazolium bromide) (Sigma Chemical Co., St. Louis, Mo.) was added to each well of a plate, and the plate was incubated in a cell-culture incubator for 4 hours. Metabolized MTT in each well was solubilized in 150 μl of DMSO (Sigma Chemical Co.) with shaking and quantified with a Wallac 1420 Victor plate reader (EG&G Wallac, Gaithersburg, Md.) at 540 nm. For the SRB assay, cells were fixed with 10% trichloroacetic acid (Sigma Chemical Co) for an hour at 4° C. After extensively washing, fixed cells were stained for 30 minutes with 0.4% sulforhodamine B (SRB, Sigma Chemical Co.) in 1% acetic acid (Sigma Chemical Co). Unbound SRB was washed away with 1% acetic acid. Then the cultures were air-dried, and dye was solubilized with 10 mM unbuffered Tris base (Sigma Chemical Co) with shaking. The bound dye was measured photometrically with the Wallac Victor plate reader at 515 nm. The ratio of the OD (optical density) value of a compound-treated culture to the OD value of a mock-treated culture, expressed in percentage, was used to quantify the cytotoxicity of a compound. […] To quantify the potentiation of the cytotoxicity of topotecan or temozolomide by test compounds, a dimensionless parameter PF50 is used and is defined as the ratio of the IC50 of topotecan or temozolomide alone to the IC50 of topotecan or temozolomide in combination with a test compound. For the compounds of the invention, PF50 values were determined by testing with topotecan.

On to `CC(c1ccc(-c2nc3cccc4c3n2CCNC4=O)cc1)N(C)C` (stereo not shown) [Example 245, 1-[4-(1-Dimethylamino-ethyl)-phenyl]-8,9-dihydro-7H-2,7,9a-triaza-benzo[cd]azulen-6-one], for which the Ki (usually a measure of affinity in units of concentration, obtained from inhibition or displacement) in data set [1] was found to be 5.8 nM. Also, the “Cytotoxicity Potentiation PF50” value in data set [2] turned out to be 2.1. Take `Cc1c(-c2ccc(F)cc2)n2c3c(cccc13)C(=O)NCC2` [Example 50, 6-(4-Fluoro-phenyl)-7-methyl-3,4-dihydro-2H-[1,4]diazepino[6,7,1-hi]indol-1-one]: the “Cytotoxicity Potentiation PF50” value in data set [2] is listed as 1.1. `O=C1NCCn2c(-c3ccc4ccccc4c3)nc3cccc1c32` [Example 11, 1-Naphthalen-2-yl-8,9-dihydro-7H-2,7,9a-triaza-benzo[cd]azulen-6-one]: the Ki in data set [1] was 5.6 nM. Moreover, the “Cytotoxicity Potentiation PF50” value in data set [2] is reported as 2.1. Turning to `O=C1NCCn2c(-c3ccc(F)cc3)cc3cccc1c32` [Example 37], the “Cytotoxicity Potentiation PF50” value in data set [2] is reported as 1.8.

As to `O=C1NCCn2c(-c3cccc4ccccc34)nc3cccc1c32` [Example 9, 1-Naphthalen-1-yl-8,9-dihydro-7H-2,7,9a-triaza-benzo[cd]azulen-6-one], the “Cytotoxicity Potentiation PF50” value in data set [2] is listed as 1.4. Turning to `O=C1NCCn2cc(/C=N/O)c3cccc1c32` [Example 46, 1-Oxo-1,2,3,4-tetrahydro-[1,4]diazepino[6,7]-hi]indole-7-carbaldehyde Oxime], in data set [2], the “Cytotoxicity Potentiation PF50” value is 1.3. As to `O=C1NCCn2c(-c3cccnc3)nc3cccc1c32` [Example 7, 1-Pyridin-3-yl-8,9-dihydro-7H-2,7,9a-triaza-benzo[cd]azulen-6-one], the inhibition constant (Ki) in data set [1] worked out at 5.1 nM. Moreover, the “Cytotoxicity Potentiation PF50” value in data set [2] came out at 1.4. For `O=C1NCCn2c(-c3ccc(CN4CCCC4)cc3)nc3cccc1c32` [Example 210, 1-(4-Pyrrolidin-1-ylmethyl-phenyl)-8,9-dihydro-7H-2,7,9a-triaza-benzo[cd]azulen-6-one] the same measures were 5 nM and 2.3.

Consider `CN(C)Cc1ccc(-c2nc3cccc4c3n2CCNC4=O)cc1` [Example 58, 1-(4-Dimethylaminomethyl-phenyl)-8,9-dihydro-7H-2,7,9a-triaza-benzo[cd]azulen-6-one], for which the Ki in data set [1] amounted to 5.8 nM. The “Cytotoxicity Potentiation PF50” value in data set [2] was found to be 2.0. Take `CN(C)Cc1ccc(-c2cc3cccc4c3n2CCNC4=O)cc1` [Example 82, 6-(4-Dimethylaminomethyl-phenyl)-3,4-dihydro-2H-[1,4]diazepino[6,7,1-hi]indol-1-one]: the Ki in data set [1] was 6.2 nM and 6.6 nM. In addition, in data set [2], the “Cytotoxicity Potentiation PF50” value is reported as 1.9.

Turning to `C[C@H]1Cn2c(-c3ccc(CN4CCCC4)cc3)nc3cccc(c32)C(=O)N1` [Example 233, (S)-8-Methyl-1-(4-pyrrolidin-1-ylmethyl-phenyl)-8,9-dihydro-7H-2,7,9a-triaza-benzo[cd]azulen-6-one], the Ki in data set [1] is 8 nM. For the same molecule, the “Cytotoxicity Potentiation PF50” value in data set [2] was 2.2. For `O=C1NCCn2c(O)nc3cccc1c32` [Example 26, 8,9-Dihydro-2H 7H-2,7,9a-triaza-benzo[cd]azulen-1,6-dione], in data set [1], the Ki was 102 nM. Also, the “Cytotoxicity Potentiation PF50” value in data set [2] is reported as 1.1. As for `C[C@H]1Cn2c(-c3ccc(CN4CC=CC4)cc3)nc3cccc(c32)C(=O)N1` [Example 223, (S)-1-[4-(2,5-Dihydro-pyrrol-1-ylmethyl)-phenyl]-8-methyl-8,9-dihydro-7H-2,7,9a-triaza-benzo[cd]azulen-6-one], the Ki in data set [1] was 8.5 nM. The “Cytotoxicity Potentiation PF50” value in data set [2] came to 2.1. As for `CCN(CCc1ccccn1)Cc1ccc(-c2nc3cccc4c3n2CCNC4=O)cc1` [Example 203, 1-(4-{[Ethyl-(2-pyridin-2-yl-ethyl)-amino]-methyl}-phenyl)-8,9-dihydro-7H-2,7,9a-triaza-benzo[cd]azulen-6-one], in data set [1], the Ki was 4.6 nM. Besides, the “Cytotoxicity Potentiation PF50” value in data set [2] was 2.0. Take `O=C1NCCn2c(-c3ccc(Cl)cc3)c(/C=N/O)c3cccc1c32` [Example 39, 6-(4-Chloro-phenyl)-1-oxo-1,2,3,4-tetrahydro-[1,4]diazepino[6,7,1-hi]indole-7-carboxaldehyde Oxime]: the “Cytotoxicity Potentiation PF50” value in data set [2] is on record as 1. On to `COc1ccc(CCNCc2ccc(-c3nc4cccc5c4n3CCNC5=O)cc2)cc1` [Example 186, 1-(4-{[2-(4-Methoxy-phenyl)-ethylamino]-methyl}-phenyl)-2,7,8,9-tetrahydro-2,7,9a-triaza-benzo[cd]azulen-6-one], for which the Ki in data set [1] is 5.5 nM. In data set [2], the “Cytotoxicity Potentiation PF50” value is 2.2. With `COc1cccc(CCNCc2ccc(-c3nc4cccc5c4n3CCNC5=O)cc2)c1` [Example 184, 1-(4-{[2-(3-Methoxy-phenyl)-ethylamino]-methyl}-phenyl)-2,7,8,9-tetrahydro-2,7,9a-triaza-benzo[cd]azulen-6-one], the Ki in data set [1] came out at 6 nM. Further, the “Cytotoxicity Potentiation PF50” value in data set [2] turned out to be 2.2.

`CN(CCc1cc2ccccc2[nH]1)Cc1ccc(-c2nc3cccc4c3n2CCNC4=O)cc1` [Example 207, 1-[4-({[2-(1H-Indol-2-yl)-ethyl]-methyl-amino}-methyl)-phenyl]-8,9-dihydro-7H-2,7,9a-triaza-benzo[cd]azulen-6-one]: the Ki in data set [1] came out at 4.2 nM. The “Cytotoxicity Potentiation PF50” value in data set [2] was 2.4. On to `CC1CCCN1Cc1ccc(-c2nc3cccc4c3n2CCNC4=O)cc1` (stereo not shown) [Example 212, 1-[4-(2-Methyl-pyrrolidin-1-ylmethyl)-phenyl]-8,9-dihydro-7H-2,7,9a-triaza-benzo[cd]azulen-6-one], for which the inhibition constant Ki in data set [1] is 6.8 nM. For the same molecule, in data set [2], the “Cytotoxicity Potentiation PF50” value is listed as 2.0. For `O=C1NCCn2c(-c3ccc(CN4CCCC4)cc3)nc3cc(F)cc1c32` [Example 211, 4-Fluoro-1-(4-pyrrolidin-1-ylmethyl-phenyl)-8,9-dihydro-7H-2,7,9a-triaza-benzo[cd]azulen-6-one], in data set [1], the Ki is 4.5 nM. Also, the “Cytotoxicity Potentiation PF50” value in data set [2] is 2.3. For `CC1C=CC(C)N1Cc1ccc(-c2nc3cccc4c3n2CCNC4=O)cc1` (racemic) [Example 243, 1-[4-(2,5-Dimethyl-2,5-dihydro-pyrrol-1-ylmethyl)-phenyl]-8,9-dihydro-7H-2,7,9a-triaza-benzo[cd]azulen-6-one] the same measures were 8.9 nM and 2.0.

As for `O=C1NCCn2c(-c3ccc(CN4CC=CC4)cc3)nc3cccc1c32` [Example 171, 1-[4-(2,5-Dihydro-pyrrol-1-ylmethyl)-phenyl]-8,9-dihydro-7H-2,7,9a-triaza-benzo[cd]azulen-6-one], the Ki in data set [1] is 4.5 nM. Besides, the “Cytotoxicity Potentiation PF50” value in data set [2] was found to be 2.5. With `O=C1NCCn2c(-c3ccc(CNC4Cc5ccccc5C4)cc3)nc3cccc1c32` [Example 197, 1-[4-(Indan-2-ylaminomethyl)-phenyl]-8,9-dihydro-7H-2,7,9a-triaza-benzo[cd]azulen-6-one], in data set [1], the Ki was 2.8 nM and 5.2 nM. In data set [2], the “Cytotoxicity Potentiation PF50” value was determined as 2.5. For the molecule `O=C1NCCn2c(-c3ccccc3)nc3cccc1c32` [Example 1, 1-Phenyl-8,9-dihydro-7H-2,7,9a-triaza-benzo[cd]azulen-6-one], the “Cytotoxicity Potentiation PF50” value in data set [2] stood at 1.5. Take `O=C1NCCn2c(-c3ccc(F)cc3)c(/C=N/O)c3cccc1c32` [Example 90, 6-(4-Fluoro-phenyl)-1-oxo-1,2,3,4-tetrahydro-[1,4]diazepino[6,7,1-hi]indole-7-carbaldehyde oxime]: the “Cytotoxicity Potentiation PF50” value in data set [2] stood at 1.2.
